Results as given in PubChem BioAssay AID488788 (Broad Institute, 2010).
Results filed as inconclusive are left out. Active and inactive are the calls of the source. No rule for the calls is given here.

The molecules below were run against CAAX prenyl protease 2 (Saccharomyces cerevisiae (strain ATCC 204508 / S288c)) (UniProt Q03530) (assay: Rce1p protease inhibitors, dose response, biochemical, plate reader, cherry-pick (AID 488788)). Conditions: Rce1p enzyme activity, at 10 µM (top of the series).
Sequence of CAAX prenyl protease 2 (Saccharomyces cerevisiae (strain ATCC 204508 / S288c)) (Q03530 whole entry, looked up): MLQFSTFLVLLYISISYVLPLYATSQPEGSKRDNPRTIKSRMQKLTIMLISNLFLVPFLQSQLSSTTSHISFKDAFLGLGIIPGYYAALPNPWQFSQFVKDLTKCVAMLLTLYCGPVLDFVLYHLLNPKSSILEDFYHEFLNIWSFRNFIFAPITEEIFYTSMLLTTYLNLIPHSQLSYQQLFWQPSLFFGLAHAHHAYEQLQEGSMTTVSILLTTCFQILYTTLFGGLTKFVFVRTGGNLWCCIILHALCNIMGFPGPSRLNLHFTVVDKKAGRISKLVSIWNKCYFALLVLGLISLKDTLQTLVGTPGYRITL
For `CCN(Cc1ccccc1)c1ccc(/C=N/N=C(N)N)cc1`, the “activity change, negative = inhibition” value was “inactive”.
For `CSc1nc(NCC(C)O)c2c3c(sc2n1)CN(C)CC3` (stereo not drawn), the “activity change, negative = inhibition” value was “inactive”.
With `C=CCc1cccc(/C=N/NC(=O)COc2ccc(-n3cnnn3)cc2)c1O` the “activity change, negative = inhibition” value was “inactive”.
`Cn1c(CCNS(=O)(=O)c2ccccc2)nnc1SCc1cccnc1` was tested, and the “activity change, negative = inhibition” value was “inactive”.
`Cc1nn(CCC(=O)O)c2nc(-c3cccnc3)cc(C(F)(F)F)c12` was tested, and the “activity change, negative = inhibition” value was “inactive”.
For `CCCCOc1ccc(Cc2c(COCC)[nH]c(=S)[nH]c2=O)cc1`, the “activity change, negative = inhibition” value was “inactive”.
For `O=C(O)c1ccc2cccc(Cl)c2c1O`, the “activity change, negative = inhibition” value was “inactive”.
`CC(C)CC(=O)NC(=S)Nc1ccc(S(=O)(=O)Nc2nccs2)cc1` was tested, and the “activity change, negative = inhibition” value was “inactive”.
For `CCOC(=O)c1c(-c2ccc(OC)cc2)oc2ccc(OC(=O)N(C)C)cc12`, the “activity change, negative = inhibition” value was “inactive”.
For `CC(=O)NN1C(=O)c2ccccc2NC1c1ccccc1` (stereo not drawn), the “activity change, negative = inhibition” value was “inactive”.
For `C/C(CC(=O)NCc1ccco1)=N\NC(=O)c1ccc([N+](=O)[O-])cc1Cl`, the “activity change, negative = inhibition” value was “inactive”.
`COCCCNC(=O)c1cc2cc3cc(OC)ccc3nc2o1` was tested, and the “activity change, negative = inhibition” value was “inactive”.
In the case of `COc1cc(NC(=O)C/C(C)=N/NC(=O)c2cccc(O)c2)c(OC)cc1Cl`, the “activity change, negative = inhibition” value is reported as “inactive”.
With `COc1ccc(-c2c(-c3ccsc3)oc3ccc(N4CCOCC4)cc23)cn1` the “activity change, negative = inhibition” value was “inactive”.
In the case of `COC(C/C=C/[C@@H](O)[C@H](C)OCc1ccccc1)OC`, the “activity change, negative = inhibition” value is reported as “inactive”.
`CCCCn1c(=O)[nH]c(=O)c2c1nc(-c1ccc(OC)c(Br)c1)n2CC(C)C` was tested, and the “activity change, negative = inhibition” value was “inactive”.
In the case of `O=C(O)CCC(=O)c1ccc(-c2ccccc2)cc1`, the “activity change, negative = inhibition” value is reported as “inactive”.
In the case of `O=C(Nc1ccccc1)n1ccc(-c2ccc(-n3ccnc3)cc2)n1`, the “activity change, negative = inhibition” value is reported as “inactive”.
With `CN(C)c1ccc(/C=N/NC(=O)C(O)c2ccc(Br)cc2)cc1` (stereo not drawn) the “activity change, negative = inhibition” value was “inactive”.
With `O=S(=O)(c1ccccc1)c1cnn2c(C(F)(F)F)cc(-c3ccc(F)cc3)nc12` the “activity change, negative = inhibition” value was “inactive”.
For `COc1cccc(-c2nc(C#N)c(N3CCN(C(=O)c4ccco4)CC3)o2)c1`, the “activity change, negative = inhibition” value was “inactive”.
With `CCN(CC)c1ccc(C(=O)c2ccccc2C(=O)O)c(O)c1` the “activity change, negative = inhibition” value was “inactive”.
With `Cc1cc(C)n(-c2nc3ccccc3c(=O)n2OCC(=O)N(C)C)n1` the “activity change, negative = inhibition” value was “inactive”.
`CCN(C(=O)COC(=O)c1cc(-c2cccs2)nc2ccccc12)C1CCS(=O)(=O)C1` (stereo not drawn) was tested, and the “activity change, negative = inhibition” value was “inactive”.
For `Cc1c(CCC(=O)O)c(=O)oc2cc(OCc3cccc(F)c3)ccc12`, the “activity change, negative = inhibition” value was “inactive”.
For `FC(F)(F)c1cc(Oc2ccccc2)ncc1-c1nnc(-c2ccccc2Cl)o1`, the “activity change, negative = inhibition” value was “inactive”.
In the case of `COc1ccc2c(c1)cc(C(=O)N[C@@H](CCSC)C(=O)N1CCC(C(=O)O)CC1)n2C`, the “activity change, negative = inhibition” value is reported as “inactive”.
In the case of `CC(=O)Nc1ccc(Cl)cc1C1COC(=O)C1=N` (stereo not drawn), the “activity change, negative = inhibition” value is reported as “inactive”.
`CC1CCc2c(sc(NC(=O)COC(=O)c3ccccc3NCc3ccco3)c2C#N)C1` (stereo not drawn) was tested, and the “activity change, negative = inhibition” value was “inactive”.
`CCc1nnc(NC(=O)c2ccc(NS(=O)(=O)c3ccccc3)cc2)s1` was tested, and the “activity change, negative = inhibition” value was “inactive”.
For `CCOc1c2ccc(C(=O)NCc3ccco3)cc2nn1CCOC`, the “activity change, negative = inhibition” value was “inactive”.
In the case of `Cc1cc(NS(=O)(=O)c2ccccc2)c([N+](=O)[O-])cc1C`, the “activity change, negative = inhibition” value is reported as “inactive”.
In the case of `Cc1nc2c(C)cccn2c(=O)c1NC(=O)COc1ccccc1`, the “activity change, negative = inhibition” value is reported as “inactive”.
For `Cc1ccc(C2(COC(=O)C(C)C)CO2)c(OC(=O)C(C)C)c1` (stereo not drawn), the “activity change, negative = inhibition” value was “inactive”.
For `OC1CCN(C(c2ccc3ncccc3c2)c2nnnn2C2CCCCC2)CC1` (stereo not drawn), the “activity change, negative = inhibition” value was “inactive”.
With `c1ccc(CCCN2CCN(CCOC(c3ccccc3)c3ccccc3)CC2)cc1` the “activity change, negative = inhibition” value was “inactive”.
For `CCOC(=O)c1sc2nc(C3CC3)cc(-c3ccc(F)cc3)c2c1N`, the “activity change, negative = inhibition” value was “inactive”.
In the case of `O=C(CCCn1c(=O)[nH]c2ccc(Br)cc2c1=O)NCc1ccc(Cl)cc1`, the “activity change, negative = inhibition” value is reported as “inactive”.
For `CCCCn1c(=O)c(-c2ccccc2)c(O)c2ccccc21`, the “activity change, negative = inhibition” value was “inactive”.
For `COc1ccc(/C=C/c2nc3ccccc3n2C)cc1`, the “activity change, negative = inhibition” value was “inactive”.
`CC(=O)c1c(C)oc2ccc(NS(=O)(=O)c3ccc(C(=O)O)cc3)cc12` was tested, and the “activity change, negative = inhibition” value was “inactive”.
In the case of `CCC(COC)NC(=O)CCc1nnc(Cc2cccc(C(F)(F)F)c2)o1` (stereo not drawn), the “activity change, negative = inhibition” value is reported as “inactive”.
With `COc1ccc(S(=O)(=O)N(CC(=O)N2CCCC2)Cc2ccccc2)cc1` the “activity change, negative = inhibition” value was “inactive”.
In the case of `Nc1nc2n[nH]nc2c(=O)[nH]1`, the “activity change, negative = inhibition” value is reported as “inactive”.
For `CCN1CCN(Cc2c(O)ccc3c(=O)c(-c4ccccc4OC)coc23)CC1`, the “activity change, negative = inhibition” value was “inactive”.
`O=C(Nc1cc(Cl)cc(Cl)c1)c1coc(=O)c(Br)c1` was tested, and the “activity change, negative = inhibition” value was “inactive”.
`Cc1cc(N/N=C/c2ccc(O)c(C)c2O)nc(-c2ccccc2O)n1` was tested, and the “activity change, negative = inhibition” value was “inactive”.
With `O=C(O)c1ccc(Nc2nc3ccc(Cl)cc3[nH]2)cc1` the “activity change, negative = inhibition” value was “inactive”.
In the case of `COc1ccccc1N1CCN(C(=O)c2coc(=O)c(Br)c2)CC1`, the “activity change, negative = inhibition” value is reported as “inactive”.
In the case of `O=C1CCCN1CC(O)CS(=O)(=O)c1ccccc1` (stereo not drawn), the “activity change, negative = inhibition” value is reported as “inactive”.
`CCOC(=O)c1c(-c2ccccc2)oc2ccc(OCC(O)CNCCN(C)C)cc12` (stereo not drawn) was tested, and the “activity change, negative = inhibition” value was “inactive”.
`CC(C)[C@H](NC(=O)OCc1ccccc1)C(=O)OCC(=O)Nc1c(F)cccc1F` was tested, and the “activity change, negative = inhibition” value was “inactive”.
In the case of `COc1ccc2oc(-c3ccccc3)c(C(=O)N3CCOCC3)c2c1`, the “activity change, negative = inhibition” value is reported as “inactive”.
With `CN1C(=O)c2ccccc2N(C)C1c1ccccc1Cl` (stereo not drawn) the “activity change, negative = inhibition” value was “inactive”.
In the case of `CCOC(=O)c1ccc(NC(=O)N2CCN(Cc3ccccc3)CC2)cc1`, the “activity change, negative = inhibition” value is reported as “inactive”.
In the case of `O=C1OCCN1C(=O)[C@H]1[C@H](c2ccc(F)cc2)C(c2ccc(F)cc2)=NN1c1ccc(Br)cc1`, the “activity change, negative = inhibition” value is reported as “inactive”.
`O=C1CN(S(=O)(=O)c2ccc([N+](=O)[O-])cc2)CC(=O)N1` was tested, and the “activity change, negative = inhibition” value was “inactive”.
For `CC(C)c1ccc(NC(=O)COc2nncc3ccccc23)cc1`, the “activity change, negative = inhibition” value was “inactive”.
In the case of `Cc1cc(N2CCOCC2)n2cc(-c3ccccc3)nc2n1`, the “activity change, negative = inhibition” value is reported as “inactive”.
For `CN(C)CCNc1ncnc2oc(-c3ccccc3)c(-c3ccccc3)c12`, the “activity change, negative = inhibition” value was “inactive”.
`C=C(C)C1(O)OC(=O)C=C1OC` (stereo not drawn) was tested, and the “activity change, negative = inhibition” value was “inactive”.
In the case of `COc1ccc(Cc2nc3ccc(C(=O)N4CCCC4)cc3o2)cc1`, the “activity change, negative = inhibition” value is reported as “inactive”.
In the case of `C=CCNc1oc(/C=C/c2ccccc2)nc1C#N`, the “activity change, negative = inhibition” value is reported as “inactive”.
With `COC(=O)C(Cc1ccccc1)OS(N)(=O)=O` (stereo not drawn) the “activity change, negative = inhibition” value was “inactive”.
For `O=S(=O)(CC(CN1CCOCC1)N1CCOCC1)c1ccccc1` (stereo not drawn), the “activity change, negative = inhibition” value was “inactive”.
In the case of `COC(C/C=C/[C@H](O)[C@@H](C)OCc1ccccc1)OC`, the “activity change, negative = inhibition” value is reported as “inactive”.
With `CC(C)C(NC(=O)c1ccco1)C(=O)NCC(c1ccco1)N1CCCCC1` (stereo not drawn) the “activity change, negative = inhibition” value was “inactive”.
`Cc1ccnc(-n2c(-c3ccco3)nc3ccccc3c2=O)c1` was tested, and the “activity change, negative = inhibition” value was “inactive”.
